According to US20230002373A1, “COMPOUNDS AND COMPOSITIONS FOR TREATING CONDITIONS ASSOCIATED WITH STING ACTIVITY” (IFM Due, Inc., priority 2019, published 2023):

Biological target: T1, hSTING (Homo sapiens, UniProt Q86WV6, G230A/H232R/R293Q/R71H)
T1 construct: host or cells: THP1-Dual KO-IFNAR2 cells
Experiment: STING reporter assay (luciferase) in THP1-Dual KO-IFNAR2 cells stimulated with 2′3′cGAMP
Assay type: cell-based
Details: 15 μM 2′3′cGAMP, 24 h, class symbols
Method: STING pathway activation by the compounds described herein was measured using THP1-Dual™ cells (KO-IFNAR2).
THP1-Dual™ KO-IFNAR2 Cells (obtained from invivogen) were maintained in RPMI, 10% FCS, 5 ml P/S, 2 mM L-glut, 10 mM Hepes, and 1 mM sodium pyruvate. Compounds were spotted in empty 384 well tissue culture plates (Greiner 781182) by Echo for a final concentration of 0.0017-100 μM. Cells were plated into the TC plates […], 2×10E6 cells/mL. For activation with STING ligand, 2′3′cGAMP (MW 718.38, obtained from Invivogen), was prepared in Optimem media.
The following solutions were prepared for each 1×384 plate: • Solution A: 2 mL Optimem with one of the following stimuli: • 60 μL of 10 mM 2′3′cGAMP->150 μM stock • Solution B: 2 mL Optimem with 60 μL Lipofectamine 2000->Incubate 5 min at RT
2 mL of solution A and 2 ml Solution B was mixed and incubated for 20 min at room temperature (RT). 20 uL of transfection solution (A+B) was added on top of the plated cells, with a final 2′3′cGAMP concentration of 15 μM. The plates were then centrifuged immediately at 340 g for 1 minute, after which they were incubated at 37° C., 5% CO2, >98% humidity for 24 h. Luciferase reporter activity was then measured. EC50 values were calculated by using standard methods known in the art.
Luciferase reporter assay: 10 μL of supernatant from the assay was transferred to white 384-plate with flat bottom and squared wells. One pouch of QUANTI-Luc™ Plus was dissolved in 25 mL of water. 100 μL of QLC Stabilizer per 25 mL of QUANTI-Luc™ Plus solution was added. 50 μL of QUANTI-Luc™ Plus/QLC solution per well was then added. Luminescence was measured on a Platereader (e.g., Spectramax I3X (Molecular Devices GF3637001)).
Luciferase reporter activity was then measured. EC50 values were calculated by using standard methods known in the art.

T1 sequence (Q86WV6 whole entry R71H/G230A/H232R/R293Q): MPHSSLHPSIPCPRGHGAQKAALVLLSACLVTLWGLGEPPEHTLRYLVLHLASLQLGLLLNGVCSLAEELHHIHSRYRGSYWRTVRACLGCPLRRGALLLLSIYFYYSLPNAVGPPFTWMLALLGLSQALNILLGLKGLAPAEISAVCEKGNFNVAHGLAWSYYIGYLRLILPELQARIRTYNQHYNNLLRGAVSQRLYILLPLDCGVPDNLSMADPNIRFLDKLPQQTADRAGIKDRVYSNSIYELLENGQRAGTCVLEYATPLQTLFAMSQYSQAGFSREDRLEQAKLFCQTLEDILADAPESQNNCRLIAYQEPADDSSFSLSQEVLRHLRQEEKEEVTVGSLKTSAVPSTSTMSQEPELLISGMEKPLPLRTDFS

| SMILES | EC50 |
| --- | --- |
| COc1cc2c(NC(=O)C(=O)NCc3ccc(C)c(C(F)(F)F)c3)c[nH]c2cn1 [Compound 214] | 1 to 5 µM |
| O=C(NCC1CC2C=CC1C2)C(=O)Nc1c[nH]c2cccnc12 (stereo not drawn) [Compound 111, N^1-(bicyclo[2.2.1]hept-5-en-2-ylmethyl)-N^2-(1H-pyrrolo[3,2-b]pyridin-3-yl)oxalamide] | 5 to 100 µM |
| O=C(NCc1cccc2c1OC(F)(F)O2)C(=O)Nc1c[nH]c2ccncc12 [Compound 158, N1-((2,2-difluorobenzo-[d][1,3]dioxol-4-yl)methyl)-N2-(1H-pyrrolo[3,2-c]pyridin-3-yl)oxalamide] | 1 to 5 µM |
| O=C(Nc1c[nH]c2ncc(F)cc12)C(=O)NC1CCC2(CCCCC2)CC1 [Compound 103, N^1-(5-fluoro-1H-pyrrolo[2,3-b]pyridin-3-yl)-N^2-(spiro[5.5]undecan-3-yl)oxalamide] | 0.2 to 1 µM |
| O=C(NCc1cccc(OC(F)(F)F)c1)C(=O)Nc1c[nH]c2ccncc12 [Compound 173, N1-(1H-pyrrolo[3,2-c]pyridin-3-yl)-N2-(3-(trifluoromethoxy)-benzyl)oxalamide] | 1 to 5 µM |
| O=C(Nc1c[nH]c2ncc(F)cc12)C(=O)N[C@H]1CCCC2(CCCCC2)C1 (single isomer, unassigned) [Compound 196, N-[5-fluoro-1H-pyrrolo[2,3-b]pyridin-3-yl]-N′-[(2S or 2R)-spiro[5.5]undecan-2-yl]ethanediamide] | 1 to 5 µM |
| CC(NC(=O)C(=O)Nc1c[nH]c2cccnc12)c1ccc(C(F)(F)F)cc1 (stereo not drawn) [Compound 143, N1-(1H pyrrolo[3,2-b]pyridin-3-yl)-N2-(1-(4-(trifluoromethyl)phenyl)ethyl)oxalamide] | 1 to 5 µM |
| O=C(Nc1ccc(C(F)(F)F)c(Cl)c1)C(=O)Nc1c[nH]c2cccnc12 [Compound 217] | 1 to 5 µM |
| O=C(Nc1c[nH]c2ncc(F)cc12)C(=O)NC1CCC2(CCCCC2)C1 (stereo not drawn) [Compound 204, N-(5-fluoro-1H-pyrrolo[2,3-b]pyridin-3-yl)-N′-(spiro[4.5]decan-2-yl)oxalamide] | 5 to 100 µM |
| Cc1ccc(CNC(=O)C(=O)Nc2c[nH]c3ccncc23)cc1C(F)(F)F [Compound 119, N^1-(4-methyl-3-(trifluoromethyl)benzyl)-N^2-(1H-pyrrolo[3,2-c]pyridin-3-yl)oxalamide] | 0.2 to 1 µM |
| O=C(NCCOc1ccc(C(F)(F)F)cc1)C(=O)Nc1c[nH]c2ccncc12 [Compound 159, N1-(1H-pyrrolo[3,2-c]pyridin-3-yl)-N2-(2-(4-(trifluoromethyl)-phenoxy)ethyl)oxalamide] | 1 to 5 µM |
| COc1ccc2[nH]cc(NC(=O)C(=O)NCc3ccc(C)c(C(F)(F)F)c3)c2n1 [Compound 215] | 0.2 to 1 µM |
| O=C(Nc1c[nH]c2ccncc12)C(=O)NC1CCC2(CCCCC2)CC1 [Compound 121, N^1-(1H-pyrrolo[3,2-c]pyridin-3-yl)-N^2-(spiro[5.5]undecan-3-yl)oxalamide] | 1 to 5 µM |
| Cc1cc(CNC(=O)C(=O)Nc2c[nH]c3cnccc23)ccc1C(F)(F)F [Compound 213] | 1 to 5 µM |
| Cc1c(CNC(=O)C(=O)Nc2c[nH]c3ccncc23)cccc1C(F)(F)F [Compound 142, N1-(2-methyl-3-(trifluoromethyl)-benzyl)-N2-(1H-pyrrolo[3,2-c]pyridin-3-yl)oxalamide] | 0.2 to 1 µM |
| O=C(Nc1c[nH]c2ncc(F)cc12)C(=O)NC1CCC2(CCCC2)CC1 [Compound 198, N-(5-fluoro-1H-pyrrolo[2,3-b]pyridin-3-yl)-N′-(spiro[4.5]decan-8-yl)oxalamide] | 0.2 to 1 µM |
| CC(C)n1cc(-c2ccc3[nH]cc(NC(=O)C(=O)Nc4ccc(C5CCCCC5)cn4)c3n2)cn1 [Compound 206, N-(5-cyclohexylpyridin-2-yl)-N′-(5-(1-isopropyl-1H-pyrazol-4-yl)-1H-pyrrolo[3,2-b]pyridin-3-yl)oxalamide] | 1 to 5 µM |
| CC(CNC(=O)C(=O)Nc1c[nH]c2ccncc12)Oc1ccc(C(F)(F)F)cc1 (stereo not drawn) [Compound 164, N1-(1H-pyrrolo[3,2-c]pyridin-3-yl)-N2-(2-(4-(trifluoromethyl)-phenoxy)propyl)-oxalamide] | 1 to 5 µM |
| Cc1ccc(OCCNC(=O)C(=O)Nc2c[nH]c3ccncc23)cc1C [Compound 157, N1-(2-(3,4-dimethylphenoxy)ethyl)-N2-(1H-pyrrolo[3,2-c]pyridin-3-yl)oxalamide] | 5 to 100 µM |
| Cc1c(CNC(=O)C(=O)Nc2c[nH]c3cccnc23)cccc1C(F)(F)F [Compound 138, N1-(2-methyl-3-(trifluoromethyl)benzyl)-N2-(1H-pyrrolo[3,2-b]pyridin-3-yl)oxalamide] | 0.2 to 1 µM |
| O=C(Nc1cccc(C(F)(F)F)c1)C(=O)Nc1c[nH]c2ccncc12 [Compound 114, N^1-(1H-pyrrolo[3,2-c]pyridin-3-yl)-N^2-(3-(trifluoromethyl)phenyl)oxalamide] | 1 to 5 µM |

The remaining lines, values ahead:

| EC50 | SMILES |
| --- | --- |
| 5 to 100 µM | O=C(NCCC1CCC(F)(F)CC1)C(=O)Nc1c[nH]c2ccncc12 [Compound 122, N^1-(2-(4,4-difluorocyclo-hexyl)ethyl)-N^2-(1H-pyrrolo[3,2-c]pyridin-3-yl)oxalamide] |
| 0.2 to 1 µM | O=C(NCc1ccc(-c2ccccc2C(F)(F)F)cc1)C(=O)Nc1c[nH]c2ccncc12 [Compound 120, N^1-(1H-pyrrolo[3,2-c]pyridin-3-yl)-N^2-((2′-(trifluoro-methyl)-[1,1′-biphenyl]-4-yl)methyl)oxalamide] |
| 5 to 100 µM | O=C(NCc1ccc(C(F)(F)F)c(Cl)c1)C(=O)Nc1c[nH]c2ncc(F)c(F)c12 [Compound 131] |
| 0.2 to 1 µM | O=C(Nc1ccc(C2CCCCC2)cn1)C(=O)Nc1c[nH]c2ccc(Br)nc12 [Compound 210] |
| 1 to 5 µM | Cc1ccccc1N1C2CCC1CC(NC(=O)C(=O)Nc1c[nH]c3ncc(F)cc13)C2 (stereo not drawn) [Compound 209, N-[5-fluoro-1H-pyrrolo[2,3-b]pyridin-3-yl]-N′-[8-(2-methylphenyl)-8-azabicyclo[3.2.1]octan-3-yl]ethanediamide] |
| 5 to 100 µM | O=C(NCc1ccccc1C(F)(F)F)C(=O)Nc1c[nH]c2ccncc12 [Compound 172, N1-(1H-pyrrolo[3,2-c]pyridin-3-yl)-N2-(2-(trifluoromethyl)-benzyl)-oxalamide] |
| 0.2 to 1 µM | O=C(NCc1ccc(OC(F)(F)F)c(Cl)c1)C(=O)Nc1c[nH]c2ccncc12 [Compound 211] |
| 1 to 5 µM | O=C(NCc1ccc(Cl)c(C(F)(F)F)c1)C(=O)Nc1c[nH]c2cccnc12 [Compound 145, N1-(4-chloro-3-(trifluoromethyl)benzyl)-N2-(1H-pyrrolo[3,2-b]pyridin-3-yl)oxalamide] |
| 0.2 to 1 µM | Cc1cc(NC(=O)C(=O)Nc2c[nH]c3ccncc23)cc(C(F)(F)F)c1 [Compound 115, N^1-(3-methyl-5-(trifluoromethyl)phenyl)-N^2-(1H-pyrrolo[3,2-c]pyridin-3-yl)oxalamide] |
| 5 to 100 µM | Cc1cc(F)c(Cl)cc1NC(=O)C(=O)Nc1c[nH]c2cccnc12 [Compound 136, N1-(5-chloro-4-fluoro-2-methylphenyl)-N2-(1H-pyrrolo[3,2-b]pyridin-3-yl)oxalamide] |
| 1 to 5 µM | C[C@@H](NC(=O)C(=O)Nc1c[nH]c2c(F)cncc12)c1ccc(C(F)(F)F)cc1 [Compound 205] |

Same assay, conditions: 15 μM 2′3′cGAMP, 24 h, numeric bounds

| EC50 | SMILES |
| --- | --- |
| > 30 µM | O=C(NCc1cccc(OC(F)(F)F)c1)C(=O)Nc1c[nH]c2cccnc12 [Compound 151, N1-(1H pyrrolo[3,2-b]pyridin-3-yl)-N2-(3-(trifluoro-methoxy)benzyl)oxalamide] |
| > 30 µM | O=C(NCC1CCC(F)(F)CC1)C(=O)Nc1c[nH]c2ccncc12 [Compound 160, N1-((4,4-difluorocyclohexyl)-methyl)-N2-(1H-pyrrolo[3,2-c]pyridin-3-yl)oxalamide] |
| > 30 µM | O=C(Nc1c[nH]c2cccnc12)C(=O)NC(c1ccc(F)cc1)C1CC1 (stereo not drawn) [Compound 135, N1-(cyclopropyl(4-fluorophenyl)methyl)-N2-(1H-pyrrolo[3,2-b]pyridin-3-yl)oxalamide] |
| > 30 µM | O=C(NCCc1ncc(C(F)(F)F)cc1Cl)C(=O)Nc1c[nH]c2cccnc12 [Compound 139, N1-(2-(3-chloro-5-(trifluoromethyl)pyridin-2-yl)ethyl)-N2-(1H-pyrrolo[3,2-b]pyridin-3-yl)oxalamide] |
| > 100 µM | O=C(Nc1cnc2c(c1)CCCC2)C(=O)Nc1c[nH]c2cccnc12 [Compound 108, N^1-(1H-pyrrolo[3,2-b]pyridin-3-yl)-N^2-(5,6,7,8-tetrahydro-quinolin-3-yl)oxalamide] |
| > 30 µM | O=C(NCC1CCc2ccccc2O1)C(=O)Nc1c[nH]c2ccncc12 (stereo not drawn) [Compound 154, N1-(chroman-2-ylmethyl)-N2-(1H-pyrrolo[3,2-c]pyridin-3-yl)oxalamide] |
| > 30 µM | O=C(NCc1cccc(N2CCCCC2)c1)C(=O)Nc1c[nH]c2cccnc12 [Compound 141, N1-(3-(piperidin-1-yl)benzyl)-N2-(1H-pyrrolo[3,2-b]pyridin-3-yl)oxalamide] |
